Here are results for 41 compounds from ChEMBL document CHEMBL4421722, “Inhibitors of protein prenyltransferases” (2013).

Bounds are passed on as bounds.

Assay [1] is described as follows: Inhibition of rat recombinant geranylgeranyltransferase type I expressed in Escherichia coli assessed as reduction in geranylgeranylation of RhoA incubated for 30 mins in presence of [3H]GGPP by scintillation counting assay relative to control.
Assay [2] is filed under the species Rattus norvegicus. The experiment in a line: Inhibition of rat recombinant geranylgeranyltransferase type I expressed in Escherichia coli assessed as residual enzyme activity for geranylgeranylation of RhoA at 50 uM incubated for 30 mins in presence of [3H]GGPP by scintillation counting assay relative to control.
The species entered for assay [3] is Rattus norvegicus. Description: Inhibition of rat recombinant geranylgeranyltransferase type I expressed in Escherichia coli assessed as residual enzyme activity for geranylgeranylation of K-Ras4B at 50 uM incubated for 30 mins in presence of [3H]GGPP by scintillation counting assay relative to control.

On to `NC(=O)[C@H](Cc1ccccc1)NC(=O)C1=CC[C@@H](c2cccc(Br)c2)N(S(=O)(=O)c2ccc(Cl)cc2)[C@H]1c1cccc(Cl)c1`, for which, in assay [1], the IC50 lay in the range of 300 to 450 nM. On the same count and under the same terms, then `CC(C)(C)[C@@H]1C=C(C(=O)O)[C@H](c2ccc(Cl)c(Cl)c2)N1S(=O)(=O)C(C)(C)C`, with 4400 nM; and `O=C(O)C1=CC[C@@H](c2cccc(Br)c2)N(S(=O)(=O)c2ccc(Br)cc2)[C@H]1c1cccc(Br)c1`, with 525 nM; and `NC(=O)[C@H](Cc1ccccc1)NC(=O)C1=CC[C@@H](c2cccc(Cl)c2)N(S(=O)(=O)c2ccc(Cl)cc2)[C@H]1c1cccc(Cl)c1`, with 600 nM. The same measure, in the same setting: then `O=C(O)C1=CC[C@@H](c2ccc(Cl)c(Cl)c2)N(S(=O)(=O)c2ccc(Cl)cc2)[C@H]1c1cccc(Cl)c1`, with 310 nM; and `NC(=O)[C@H](Cc1ccccc1)NC(=O)C1=CC[C@@H](c2cccc(Cl)c2)N(S(=O)(=O)c2ccc(Br)cc2)[C@H]1c1cccc(Br)c1`, with above 20000 nM.

Take `O=C(O)C1=CC[C@@H](c2cccc(Cl)c2)N(S(=O)(=O)c2ccc(Br)cc2)[C@H]1c1cccc(Br)c1`: in assay [1], the 50% inhibitory concentration (IC50) fell in the range of 155 to 169 nM. As for `O=C(O)C1=CC[C@@H](c2cccc(Cl)c2)N(S(=O)(=O)c2ccc(Br)cc2)[C@H]1c1cccc(Cl)c1`, the concentration for half-maximal inhibition (IC50) in assay [1] was in the range of 86 to 87.1 nM.

Take `O=C(O)C1=CC[C@@H](c2cccc(Br)c2)N(S(=O)(=O)c2ccc(F)cc2)[C@H]1c1cccc(Cl)c1`: the IC50 in assay [1] was determined as 212 nM. Same read-out and setting: then `Cc1cccc([C@H]2C(C(=O)O)=CC[C@@H](c3cccc(Br)c3)N2S(=O)(=O)c2ccc(Cl)cc2)c1`, with 256 nM. Still for that read-out and setting: with `O=C(O)C1=CC[C@@H](c2cccc(Br)c2)N(S(=O)(=O)c2ccc(Br)cc2)[C@H]1c1cccc(Cl)c1` the figure was 529 nM; with `CC(C)(C)[C@@H]1C=C(C(=O)O)[C@H](c2ccc(Cl)c(Cl)c2)N1S(=O)(=O)c1c(Cl)cccc1Cl`, 4400 nM.

`O=C(O)C1=CC[C@@H](c2cccc(Br)c2)N(S(=O)(=O)c2ccc(Cl)cc2)[C@H]1c1cccc(F)c1`: the IC50 in assay [1] turned out to be 841 nM. With `C=CCS[C@H]1[C@@H](C(=O)O)[C@H](c2ccc(Cl)cc2)N(S(=O)(=O)c2ccccc2C)[C@@H]1CCCCCC`, the figures for the Activity in the assay filed under Rattus norvegicus [2] and in the assay filed under Rattus norvegicus [3] were 6% and 24.9%, respectively. With `Cc1ccccc1S(=O)(=O)N1C[C@@H](C(=O)O)[C@H](Sc2ccc(Cl)cc2)C[C@H]1c1ccc(Cl)cc1`, the Activity in the assay listed under Rattus norvegicus [2] is 13%; in the assay filed under Rattus norvegicus [3], 83.5%.

For `O=C(O)C1=CC[C@@H](c2cccc(Cl)c2)N(S(=O)(=O)c2ccc(Cl)cc2)[C@H]1c1cccc(Cl)c1`, the 50% inhibitory concentration (IC50) in assay [1] worked out at 241 nM. The same measure, in the same setting: with `O=C(O)C1=CC[C@@H](c2ccc(Br)cc2)N(S(=O)(=O)c2ccc(Br)cc2)[C@H]1c1cccc(Cl)c1` the figure was 398 nM. As for `Cc1ccc(S(=O)(=O)N2C[C@@H](C(=O)O)[C@H](Sc3ccccc3)C[C@H]2c2ccc(Cl)cc2)cc1`, the Activity was found to be 4.6% in the assay filed under Rattus norvegicus [2] and 40% in the assay filed under Rattus norvegicus [3]. The like results for `Cc1ccc(S(=O)(=O)N2C[C@@H](C(=O)O)[C@H](SCc3ccccc3)C[C@H]2c2ccc(Cl)cc2)cc1` were, in that order, 4.6% and 11.5 to 15.8%. With `Cc1ccc(S(=O)(=O)N2[C@H](CC3CCCC3)[C@@H](SCCC(=O)OC(C)(C)C)[C@@H](C(=O)O)[C@@H]2c2cccc(F)c2)cc1`, the Activity in the assay listed under Rattus norvegicus [2] stood at 8.2%; in the assay filed under Rattus norvegicus [3], 31.9%. The like results for `CCCCCS[C@H]1[C@@H](C(=O)O)[C@H](c2cccc(F)c2)N(S(=O)(=O)c2ccc(C)cc2)[C@@H]1CCCC` were, in that order, 7.1% and 23.5%. Take `C=CCS[C@H]1[C@@H](C(=O)O)[C@H](c2ccc(OC)c(OC)c2)N(S(=O)(=O)c2ccc(C)cc2)[C@@H]1CCCCCC`: the figures for the Activity in the assay listed under Rattus norvegicus [2] and in the assay listed under Rattus norvegicus [3] were 8.1% and 22.3%, respectively.

Regarding `C=CCS[C@H]1[C@@H](C(=O)O)[C@H](c2ccc(Br)cc2)N(S(=O)(=O)c2ccc(C)cc2)[C@@H]1CCC`, the Activity in the assay listed under Rattus norvegicus [2] is 7.5%; in the assay listed under Rattus norvegicus [3], 9.8%. Taken in the same sequence, the figures for `Cc1ccc(S(=O)(=O)N2C[C@@H](C(=O)O)[C@H](Sc3ccc(Cl)cc3)C[C@H]2c2cccc(Cl)c2)cc1` were 6% and 111%. The like results for `C=CCS[C@H]1[C@@H](C(=O)O)[C@H](c2cccc(F)c2)N(S(=O)(=O)c2ccc(C)cc2)[C@@H]1CC1CCCC1` were, in that order, 9.7% and 30.4%. For `Cc1ccc([C@@H]2C[C@@H](Sc3ccccc3)[C@H](C(=O)O)CN2S(=O)(=O)c2ccccc2C)cc1`, the values for the Activity in the assay listed under Rattus norvegicus [2] and in the assay listed under Rattus norvegicus [3] were 17.5% and 69.5%, respectively. As to `Cc1ccc(S(=O)(=O)N2C[C@@H](C(=O)O)[C@H](SCCc3ccccc3)C[C@H]2c2ccccc2)cc1`, the Activity in the assay listed under Rattus norvegicus [2] is 5.8%; in the assay filed under Rattus norvegicus [3], 15.2 to 16.5%.

Turning to `Cc1ccc(S(=O)(=O)N2C[C@@H](C(=O)O)[C@H](Sc3ccc(Cl)cc3)C[C@H]2c2ccc(Cl)cc2)cc1`, the Activity in the assay listed under Rattus norvegicus [2] was found to be 4.9%; in the assay filed under Rattus norvegicus [3], 52.1%.

Turning to `CCCCCC[C@@H]1[C@@H](SC2CCCC2)[C@@H](C(=O)O)[C@H](c2ccc(C#N)cc2)N1S(=O)(=O)c1ccc(C)cc1`, the Activity was 7.4% in the assay listed under Rattus norvegicus [2] and 20.1% in the assay listed under Rattus norvegicus [3]. Taken in the same sequence, the figures for `CCOc1ccc([C@@H]2C[C@@H](SCc3ccc(Cl)cc3)[C@H](C(=O)O)CN2S(=O)(=O)c2ccc(C)cc2)cc1` were 2.6% and 3.1 to 3.7%. The like results for `C=CCS[C@H]1[C@@H](C(=O)O)[C@H](c2ccc(C#N)cc2)N(S(=O)(=O)c2ccc(C)cc2)[C@@H]1C(C)C` were, in that order, 9.3% and 23.1%. The like results for `COc1ccc([C@@H]2C[C@@H](SCc3ccc(Cl)cc3)[C@H](C(=O)O)CN2S(=O)(=O)c2ccccc2)cc1` were, in that order, 13.4% and 29.2 to 31.9%. In the case of `O=C(O)C1=CC[C@@H](c2ccc(Cl)cc2)N(S(=O)(=O)c2ccc(Cl)cc2)[C@H]1c1cccc(Cl)c1`, the Activity in the assay listed under Rattus norvegicus [2] was 26.7%; in the assay listed under Rattus norvegicus [3] it was 33.1%. For the compound `Cc1ccc(S(=O)(=O)N2[C@@H](c3ccc(Cl)cc3)C(C(=O)O)=CC[C@H]2c2ccc(Cl)c(Cl)c2)cc1`, the Activity is 12.1% in the assay listed under Rattus norvegicus [2] and 17.7 to 21.3% in the assay filed under Rattus norvegicus [3]. Taken in the same sequence, the figures for `C=CCS[C@H]1[C@@H](C(=O)O)[C@H](c2ccc(C(C)C)cc2)N(S(=O)(=O)c2ccc(C)cc2)[C@@H]1CC1CCCC1` were 6.1% and 31.7%. `COc1ccc([C@@H]2C[C@@H](SCc3ccc(Cl)cc3)[C@H](C(=O)O)CN2S(=O)(=O)c2ccccc2C)cc1`: the Activity in the assay filed under Rattus norvegicus [2] is 0.5%; in the assay filed under Rattus norvegicus [3] it was 23.9 to 30.9%.

In the case of `C=CCS[C@H]1[C@@H](C(=O)O)[C@H](c2ccc(Cl)cc2)N(S(=O)(=O)c2ccccc2C)[C@@H]1CCC`, the Activity in the assay filed under Rattus norvegicus [2] was 8.9%; in the assay listed under Rattus norvegicus [3] it was 28.4%. Taken in the same sequence, the figures for `Cc1ccc(S(=O)(=O)N2[C@@H](c3cccc(Br)c3)C(C(=O)O)=CC[C@H]2c2cccc(Cl)c2)cc1` were 7% and 11 to 23.1%. Taken in the same sequence, the figures for `COc1ccc(S[C@H]2[C@@H](C(=O)O)[C@H](c3ccc(Cl)cc3)N(S(=O)(=O)c3ccc(Cl)cc3)[C@@H]2C(C)C)cc1` were 8% and 48.7%. As to `COc1ccc([C@@H]2C[C@@H](SCc3ccc(Cl)cc3)[C@H](C(=O)O)CN2S(=O)(=O)c2ccc(Cl)cc2)cc1`, the Activity in the assay filed under Rattus norvegicus [2] is 8.5%; in the assay filed under Rattus norvegicus [3], 20.8 to 27.1%. Taken in the same sequence, the figures for `Cc1ccc(S(=O)(=O)N2[C@@H](c3cccc(C)c3)C(C(=O)O)=CC[C@H]2c2ccc(Cl)c(Cl)c2)cc1` were 10.3% and 12.6 to 20.2%.

One may read the IC50 as the point on the concentration scale where inhibition reaches its midpoint.
